What all share (type): cell-based, human
One assay has as its system hMSCs. Briefly: Mineralization of hMSCs under continuous Wnt3a (Alizarin red, 21 days). As to the method: Experiments were conducted to evaluate the effect of PEDF-derived peptides on the mineralization of hMSCs. […] For “late” groups, PEDF 34-mer was added only during the last 8 days of the differentiation protocol. Mineralization was assessed by Alizarin red staining (FIG. 14C).

In the next assay the test system is β-catenin. Briefly: Active β-catenin and mature osteoblast gene expression in hMSC cultures with Wnt3a and PEDF peptides. As to the method: Experiments were conducted to evaluate the effect of Wnt3a and PEDF-derived peptides on β-catenin, a transcriptional regulator of osteoblast differentiation. Cultures incubated in 50 ng/ml Wnt3a alone or in combination with 100 nM PEDF-derived peptides.

Assay [1] relates to Wnt cell surface receptor LRP6. Nature of the assay: Canonical Wnt-β-catenin signaling in hMSCs (immunoblot of phospho-LRP6 and active β-catenin). As to the method:
The inhibitor of Wnt production (IWP-2; Tocris Bioscience, Minneapolis, Minn., USA; 2 μM×24-48 h) was used to block production of endogenous Wnt proteins (Chen et al., 2009, Nat Chem Biol, 5: 100-107; Clevers et al., 2012, Cell, 149: 1192-1205). All other chemicals, unless indicated, were purchased from Sigma (St. Louis, Mo., USA).
Adipose-derived hMSCs [American Type Culture Collection (ATCC), Manasses, Va., USA; PCS-500-011) were propagated in MSC basal medium supplemented with MSC growth kit (ATCC). Cells were CD29, CD44, CD105, and CD166 positive and negative for CD 31, CD34, and CD45. Interrogation of Wnt-β-catenin signaling was done in ATCC MSC basal medium with 2% FBS. PEDF (500 ng/ml) was added for 6 h. Passage 2 and 3 hMSCs were used for Wnt signaling experiments. For adipocyte conversion, cells (5000 cells/cm^2) were placed in adipocyte differentiation medium (ATCC; PCS-500-050) for 9-10 d. For osteoblast differentiation, cells (5000 cells/cm^2) were differentiated in osteoblast differentiation medium (ATCC; PCS-500-052) for 10-21 d. Alkaline phosphatase kit (Sigma) was used to stain osteoblasts.
Immunoblotting was performed as described previously (Schmitz et al., 2011, Am J Pathol, 179: 2990-2999). Proteins were separated by 10% SDS-PAGE on gradient gels (Bio-Rad, Hercules, Calif., USA). Antibodies against nonphosphorylated β-catenin, total β-catenin, phospho-LRP6 (serine 1490), total LRP6 (Cell Signaling Technologies, Danvers, Mass., USA), and alkaline phosphatase (Developmental Studies Hybridoma Bank, University of Iowa, Iowa City, Iowa, USA). To assess signaling through the Wnt coreceptor LRP6, 3T3 adipocyte precursors with vector and LRP6-KO shRNA were used (Liu et al., 2012, J Biol Chem, 287: 7213-7223). On confluence, cells were serum starved for 48 h, and then changed to DMEM with 10% FCS (d 0). PEDF (10 nM) was added on d 0, and cells were harvested after 48 h. Knockdown was confirmed by immunoblotting for total LRP6. β-actin (Sigma) was used as a loading control.
(In general: A western blot detects proteins with antibodies after separation by electrophoresis.)

This is an account of results in US10357549B2, “Pigment epithelium-derived factor (PEDF) and peptide derivatives thereof for use in osteoblast differentiation and bone growth” (Yale University, priority 2014, dated 2019).

As to “DPFFKVPVNALAAAVSNFGYDLYRVRSSTSPTTN [SEQ ID NO: 4, mutated K→A PEDF 34-mer peptide]”, the “Alizarin red quantitation relative to native PEDF 34-mer” value with hMSCs (100 nM peptide with continuous Wnt3a 50 ng/ml, 21 days) is on record as “gain of function properties”. In the assay on hMSCs (added last 8 of 21 days), the “mineralization of hMSCs, final phase addition” value was “stimulates mineralization”. Further, the “osteoblast mineralization, peptide added in the last eight days” value in the assay on hMSCs (added last 8 of 21 days, continuous Wnt3a 50 ng/ml) is reported as “comparable to the full-length protein added for 21 days”. Also, the “expression of osterix (OSX)” value in the assay with β-catenin (hMSC differentiated for 21 days, 50 ng/ml Wnt3a and 100 nM peptide) was “increases the expression of osterix (OSX)”.

In the case of `Cc1ccc2nc(NC(=O)CSc3nc4c(c(=O)n3-c3ccccc3)SCC4)sc2c1` [IWP-2, reference compound], in assay [1] (IWP-2 2 μM incubation 48 h alone), the “LRP6 phosphorylation (endogenous Wnt production)” value is “near absence of LRP6 phosphorylation”.

“DPFFKVPVNKLAAAVSNFGYDLYRVRSSTSPTTN [PEDF 34-mer, PEDF-derived 34-mer peptide]”: in the assay on β-catenin (100 nM peptide with 50 ng/ml Wnt3a), the “levels of active β-catenin” value is listed as “increases the levels of active β-catenin”.

B1: Wnt3a (protein, UniProt P56704 19-352, looked up)
Protein Wnt-3a: SYPIWWSLAVGPQYSSLGSQPILCASIPGLVPKQLRFCRNYVEIMPSVAEGIKIGIQECQHQFRGRRWNCTTVHDSLAIFGPVLDKATRESAFVHAIASAGVAFAVTRSCAEGTAAICGCSSRHQGSPGKGWKWGGCSEDIEFGGMVSREFADARENRPDARSAMNRHNNEAGRQAIASHMHLKCKCHGLSGSCEVKTCWWSQPDFRAIGDFLKDKYDSASEMVVEKHRESRGWVETLRPRYTYFKVPTERDLVYYEASPNFCEPNPETGSFGTRDRTCNVSSHGIDGCDLLCCGRGHNARAERRREKCRCVFHWCCYVSCQECTRVYDVHTCK
notes: prototypical Wnt agonist ligand
Consider B1, for which the LRP6 phosphorylation entry in assay [1] (hMSCs, Wnt3a 50 ng/ml, PEDF 500 ng/ml) is “increased LRP6 phosphorylation”. The “mineralization (Alizarin red) with continuous Wnt3a versus controls” value with hMSCs (Wnt3a 50 ng/ml continuous, 21-day-old hMSC cultures) was “diminished mineralization”. In addition, in the assay with β-catenin (50 ng/ml Wnt3a alone), the “active β-catenin under unopposed and continuous Wnt3a” value is “suppresses active β-catenin”.
